Measurements published in ChEMBL document CHEMBL2396528, “Synthesis of new conjugated coumarin-benzimidazole hybrids and their anticancer activity” (2013).
Calls of active or inactive are those of the source. The calls are words filed in the database; no cut-off is given here.

Assays:
Format in all cases: functional
[1] = system: HL-60(TB); assay: Cytotoxicity against human HL-60(TB) cells assessed as growth inhibition at 10 uM after 48 hrs by SRB assay relative to control; conditions: HL-60, 48 h, read-out: GI
[2] = system: MDA-MB-231; assay: Cytotoxicity against human MDA-MB-231 cells assessed as growth inhibition at 10 uM after 48 hrs by SRB assay relative to control; conditions: MDA-MB-231, 48 h, read-out: GI
[3] = system: SK-MEL-2; assay: Cytotoxicity against human SK-MEL-2 cells assessed as growth inhibition at 10 uM after 48 hrs by SRB assay relative to control; conditions: SK-MEL-2, 48 h, read-out: GI
[4] = system: UACC-257; assay: Cytotoxicity against human UACC257 cells assessed as growth inhibition at 10 uM after 48 hrs by SRB assay relative to control; conditions: UACC-257, 48 h, read-out: GI
[5] = system: Hs-578T; assay: Cytotoxicity against human Hs578T cells assessed as growth inhibition at 10 uM after 48 hrs by SRB assay relative to control; conditions: for inhibition of growth at 10 µM: read-out: GI
[6] = system: SK-OV-3; assay: Cytotoxicity against human SKOV3 cells assessed as growth inhibition at 10 uM after 48 hrs by SRB assay relative to control; conditions: SK-OV-3, 48 h, read-out: GI
[7] = system: SR; assay: Cytotoxicity against human SR cells assessed as growth inhibition at 10 uM after 48 hrs by SRB assay relative to control; conditions: read-out: GI
[8] = system: MOLT-4; assay: Cytotoxicity against human MOLT4 cells assessed as growth inhibition at 10 uM after 48 hrs by SRB assay relative to control; conditions: MOLT-4, 48 h, read-out: GI
[9] = system: SW-620; assay: Cytotoxicity against human SW620 cells assessed as growth inhibition at 10 uM after 48 hrs by SRB assay relative to control; conditions: SW-620, 48 h, read-out: GI
[10] = system: NCI-H522; assay: Cytotoxicity against human NCI-H522 cells assessed as growth inhibition at 10 uM after 48 hrs by SRB assay relative to control; conditions: NCI-H522, 48 h, read-out: GI
[11] = system: CAKI-1; assay: Cytotoxicity against human Caki1 cells assessed as growth inhibition at 10 uM after 48 hrs by SRB assay relative to control; conditions: CAKI-1, 48 h, read-out: GI
[12] = system: A498; assay: Cytotoxicity against human A498 cells assessed as growth inhibition at 10 uM after 48 hrs by SRB assay relative to control; conditions: for inhibition of growth at 10 µM: A498, 48 h, read-out: GI
[13] = system: OVCAR-8; assay: Cytotoxicity against human OVCAR8 cells assessed as growth inhibition at 10 uM after 48 hrs by SRB assay relative to control; conditions: OVCAR-8, 48 h, read-out: GI
[14] = system: NCI-H226; assay: Cytotoxicity against human NCI-H226 cells assessed as growth inhibition at 10 uM after 48 hrs by SRB assay relative to control; conditions: NCI-H226, 48 h, read-out: GI
[15] = system: HOP-62; assay: Cytotoxicity against human HOP62 cells assessed as growth inhibition at 10 uM after 48 hrs by SRB assay relative to control; conditions: HOP-62, 48 h, read-out: GI
[16] = system: HCT-116; assay: Cytotoxicity against human HCT116 cells assessed as growth inhibition at 10 uM after 48 hrs by SRB assay relative to control; conditions: HCT-116, 48 h, read-out: GI
[17] = system: SK-MEL-28; assay: Cytotoxicity against human SK-MEL-28 cells assessed as growth inhibition at 10 uM after 48 hrs by SRB assay relative to control; conditions: SK-MEL-28, 48 h, read-out: GI
[18] = system: SF-539; assay: Cytotoxicity against human SF539 cells assessed as growth inhibition at 10 uM after 48 hrs by SRB assay relative to control; conditions: for inhibition of growth at 10 µM: SF-539, 48 h, read-out: GI
[19] = system: NCI-H23; assay: Cytotoxicity against human NCI-H23 cells assessed as growth inhibition at 10 uM after 48 hrs by SRB assay relative to control; conditions: NCI-H23, 48 h, read-out: GI
[20] = system: SNB-75; assay: Cytotoxicity against human SNB75 cells assessed as growth inhibition at 10 uM after 48 hrs by SRB assay relative to control; conditions: SNB-75, 48 h, read-out: GI
[21] = system: OVCAR-3; assay: Cytotoxicity against human OVCAR3 cells assessed as growth inhibition at 10 uM after 48 hrs by SRB assay relative to control; conditions: OVCAR-3, 48 h, read-out: GI
[22] = system: U-251; assay: Cytotoxicity against human U251 cells assessed as growth inhibition at 10 uM after 48 hrs by SRB assay relative to control; conditions: U-251, 48 h, read-out: GI
[23] = system: HOP-92; assay: Cytotoxicity against human HOP92 cells assessed as growth inhibition at 10 uM after 48 hrs by SRB assay relative to control; conditions: HOP-92, 48 h, read-out: GI
[24] = system: MDA-MB-468; assay: Cytotoxicity against human MDA-MB-468 cells assessed as growth inhibition at 10 uM after 48 hrs by SRB assay relative to control; conditions: MDA-MB-468, 48 h, read-out: GI
[25] = system: M14; assay: Cytotoxicity against human M14 cells assessed as growth inhibition at 10 uM after 48 hrs by SRB assay relative to control; conditions: M14, 48 h, read-out: GI
[26] = system: OVCAR-5; assay: Cytotoxicity against human OVCAR5 cells assessed as growth inhibition at 10 uM after 48 hrs by SRB assay relative to control; conditions: OVCAR-5, 48 h, read-out: GI
[27] = system: CCRF-CEM; assay: Cytotoxicity against human CCRF-CEM cells assessed as growth inhibition at 10 uM after 48 hrs by SRB assay relative to control; conditions: read-out: GI
[28] = system: UO-31; assay: Cytotoxicity against human UO31 cells assessed as growth inhibition at 10 uM after 48 hrs by SRB assay relative to control; conditions: UO-31, 48 h, read-out: GI
[29] = system: SK-MEL-5; assay: Cytotoxicity against human SK-MEL-5 cells assessed as growth inhibition at 10 uM after 48 hrs by SRB assay relative to control; conditions: SK-MEL-5, 48 h, read-out: GI
[30] = system: DU-145; assay: Cytotoxicity against human DU145 cells assessed as growth inhibition at 10 uM after 48 hrs by SRB assay relative to control; conditions: DU-145, 48 h, read-out: GI
[31] = system: HCC 2998; assay: Cytotoxicity against human HCC2998 cells assessed as growth inhibition at 10 uM after 48 hrs by SRB assay relative to control; conditions: for inhibition of growth at 10 µM: HCC 2998, 48 h, read-out: GI
[32] = system: MCF7; assay: Cytotoxicity against human MCF7 cells assessed as growth inhibition at 10 uM after 48 hrs by SRB assay relative to control; conditions: MCF7, 48 h, read-out: GI
[33] = system: BT-549; assay: Cytotoxicity against human BT549 cells assessed as growth inhibition at 10 uM after 48 hrs by SRB assay relative to control; conditions: BT-549, 48 h, read-out: GI
[34] = system: UACC-62; assay: Cytotoxicity against human UACC62 cells assessed as growth inhibition at 10 uM after 48 hrs by SRB assay relative to control; conditions: UACC-62, 48 h, read-out: GI

Structure (SMILES)	inhibition of growth at 10 µM [1] [%]	inhibition of growth at 10 µM [2] [%]	inhibition of growth at 10 µM [3] [%]	inhibition of growth at 10 µM [4] [%]	inhibition of growth at 10 µM [6] [%]	inhibition of growth at 10 µM [8] [%]	inhibition of growth at 10 µM [9] [%]	inhibition of growth at 10 µM [10] [%]	inhibition of growth at 10 µM [11] [%]	inhibition of growth at 10 µM [14] [%]	inhibition of growth at 10 µM [15] [%]	inhibition of growth at 10 µM [16] [%]	inhibition of growth at 10 µM [17] [%]	inhibition of growth at 10 µM [19] [%]	inhibition of growth at 10 µM [20] [%]	inhibition of growth at 10 µM [21] [%]	inhibition of growth at 10 µM [22] [%]	inhibition of growth at 10 µM [23] [%]	inhibition of growth at 10 µM [26] [%]	inhibition of growth at 10 µM [27] [%]	also measured
CN1CCN(c2ccc3cc(-c4nc5ccccc5[nH]4)c(=O)oc3c2)CC1	27.1	< 20	< 20	25.3	< 20	< 20	< 20	< 20	< 20	< 20	< 20	< 20	< 20	25.5	< 20	< 20	< 20	41.1	< 20	26.5	inhibition of growth at 10 µM [5]: < 20%; inhibition of growth at 10 µM [7]: < 20%; inhibition of growth at 10 µM [12]: < 20%; inhibition of growth at 10 µM [13]: < 20%; inhibition of growth at 10 µM [18]: < 20%; inhibition of growth at 10 µM [24]: 31.7%; inhibition of growth at 10 µM [25]: < 20%; inhibition of growth at 10 µM [28]: 34.6%; inhibition of growth at 10 µM [29]: < 20%; inhibition of growth at 10 µM [30]: < 20%; inhibition of growth at 10 µM [31]: < 20%; inhibition of growth at 10 µM [32]: 26.3%; inhibition of growth at 10 µM [33]: < 20%
O=c1[nH]cc(F)c(=O)[nH]1 [FLUOROURACIL]	47.9	78.1	95.5	33.7	77.5	43.1	< 20	58	39.4	69.5	47.8	17.8	19.5	39	65.9	47.4	50.3	50.6	44.3	57.1	growth inhibition (GI) [5]: Active; inhibition of growth at 10 µM [7]: 24.8%; growth inhibition (GI) [12]: Active; growth inhibition (GI) [18]: Active; inhibition of growth at 10 µM [28]: 41.3%; inhibition of growth at 10 µM [30]: 35.5%; growth inhibition (GI) [31]: Active; inhibition of growth at 10 µM [34]: 39.7%; inhibition of growth at 10 µM [32]: 11.5%; inhibition of growth at 10 µM [33]: 37.8%
O=c1oc2cc(NCCN3CCOCC3)ccc2cc1-c1nc2ccccc2[nH]1	< 20	< 20	< 20	< 20	< 20	< 20	< 20	< 20	< 20	< 20	< 20	< 20	< 20	< 20	22.9	< 20	< 20	23.3	< 20	< 20	inhibition of growth at 10 µM [5]: < 20%; inhibition of growth at 10 µM [12]: < 20%; inhibition of growth at 10 µM [13]: < 20%; inhibition of growth at 10 µM [18]: < 20%; inhibition of growth at 10 µM [24]: < 20%; inhibition of growth at 10 µM [25]: < 20%; inhibition of growth at 10 µM [28]: 34.3%; inhibition of growth at 10 µM [29]: < 20%; inhibition of growth at 10 µM [30]: < 20%; inhibition of growth at 10 µM [31]: < 20%; inhibition of growth at 10 µM [34]: < 20%; inhibition of growth at 10 µM [32]: < 20%; inhibition of growth at 10 µM [33]: < 20%
